According to patent US6682892B2, “Method for treating herpes viruses” (priority 2000, dated 2004):
Read-outs that look alike come from different tables or passages of the source.

Columns and labels:
Type in all cases: cell-based
HCMV AD169 = test: Plaque reduction assay, HCMV AD169; conditions: Table 5, wild type strain; read-out: Plaque Reduction Assay - IC50 (μM) HCMV AD169
Procedure: (§1) Antiviral activity of compounds against herpesviruses such as HSV-1, HSV-2, or HCMV can be measured using plaque reduction assays. 0.1 ml of media containing approximately 50 PFU of virus is added to each well of a 24-well cell culture dish containing a confluent monolayer of cells (Vero cells for HSV-1 and HSV-2, HFF cells for HCMV). Compounds are dissolved in 100% DMSO and diluted in 100% DMSO as 200× stocks of the desired final drug concentration. Typically 5-6 two-fold dilutions are prepared for each compound. Dilutions of compounds are then added to media containing 0.8% CMC resulting in a final 1× drug concentration. After the virus-infected cells have incubated for 1 h at 37° C., the virus innoculum is removed and 1 ml of media containing 0.8% CMC and the various concentrations of compound is added to each well of the dish. The dish is incubated at 37° C. for approximately 2-3 days (HSV-1 and HSV-2) or 6-9 days (HCMV) to allow sufficient growth of virus to form plaques in the cell monolayer. Plaques can be observed and counted microscopically or by staining the cells with 0.1% crystal violet in 20% ethanol. […] Antiviral activity of a compound is expressed as the concentration of compound predicted to reduce the number of plaques in a well by 50% (IC50). The IC50 values are calculated by plotting the per cent inhibition vs. concentration of compound using EXCEL software for linear regression.

HSV-1 KOS = test: Plaque reduction assay, HSV-1 KOS
Procedure: as §1
(§2) A panel of viruses consisting of four strains of HSV-1 (KOS, F, DJL, Patton) and three strains of HSV-2 (MS, 35D, 186) are tested in a plaque reduction assay against four different 4-oxo-DHQ compounds (#1, 2, 4, 5 as shown in FIG. 1), and one 4-oxo-DHTP compound (#3 as shown in FIG. 1) and against Acyclovir. The six drugs inhibited replication of the seven virus strains with IC50 values ranging from 2-10 μM (Table 1). In order to select for 4-oxo-DHQ resistant mutants, HSV-1 strains KOS, F, and DJL along with HSV-2 strains 186 and MS are serially passaged in the presence of 20 uM compound 1. Following the seventh passage, 4-oxo-DHQ resistant virus from each strain are plaque purified three times and high-titer stocks are made.

HSV-2 MS-M1 (V826A) = test: Plaque reduction assay, 4-oxo-DHQ resistant HSV-2 MS-M1; conditions: Table 5, mutant selected for 4-oxo-DHQ resistance; read-out: Plaque Reduction Assay - IC50 (μM) HSV-2 MS-M1
Procedure: as §1
(§3) Vero cells are plated out at a density of 3.5×10^5 cells per well in a six well tissue culture plate. Cells are infected with HSV-1 KOS at a multiplicity of infection (moi) of 0.1 pfu/cell and 1 h post infection the cells are overlayed with 3 ml media containing 20 uM of a 4-oxo-DHQ. Cultures are incubated for 20 h at 37° C., freeze/thawed to release cell-associated virus, and 0.1 ml of culture is used to infect a new monolayer of Vero cells (one passage). Serial passage is repeated seven times in the presence of 20 uM drug. Virus isolates are then plaque purified three times prior to preparation of stocks. 4-oxo-DHQ resistant HSV-1 and HSV-2 may also be selected by the marker transfer method described below using wild-type HSV DNA and the corresponding mutant HSV polymerase gene.
as §2

HSV-2 MS = test: Plaque reduction assay, HSV-2 MS
Procedure: as §1, §2

[1] = test system: HCMV AD169-M1 (V823A, V824L); test: Plaque reduction assay, 4-oxo-DHQ resistant HCMV AD169-M1; conditions: Table 5, mutant selected for 4-oxo-DHQ resistance; read-out: Plaque Reduction Assay - IC50 (μM) HCMV AD169-M1
Procedure: as §1
A plasmid containing the wild-type HCMV polymerase gene is modified to contain the V823A or V823A and V824L mutations using a site-directed mutagenesis Kit (Stratagene Corp.) and following the manufactures's protocol. HFF cells are plated into T25 tissue culture flasks to achieve 80% confluency at the time of the transfection. Wild type HCMV AD 169 DNA and plasmid DNA containing the mutant HCMV polymerase gene are mixed at a ratio of 1:2 (2 ug of viral DNA to 4 ug of plasmid DNA). DNA's are transfected using superfect transfection reagent according to methods recommended by the manufacturer (Quiagen Inc.). Cells are harvested five days posttransfection, freeze-thawed to release virus and half of the sample is used to infect HFF cell monolayers. Cells are overlayed with media containing 20 uM 4-oxo-DHQ compound 2 (see FIG. 1). Serial passage is repeated seven times in the presence of 20 uM compound 2 and virus isolates are then plaque purified three times prior to preparation of viral stock.
In order to isolate an HCMV resistant mutant marker rescue experiments are done. Plasmids containing the mutant polymerase genes are transfected into HFF cells along with wild type HCMV AD169 DNA. The resulting virus is then serially passaged in the presence of 20 uM compound 1 (see FIG. 1). A 4-oxo-DHQ resistant virus is isolated from marker rescue studies done with the HCMV polymerase gene containing mutations that result in the V823A, V824L amino acid changes, but not with the gene containing V823A change alone.

HSV-2 35D = test: Plaque reduction assay, HSV-2 35D; conditions: Table 1, plaque reduction, Vero cells
Procedure: as §1, §2

HSV-1 KOS-M1 (V823A) = test: Plaque reduction assay, 4-oxo-DHQ resistant HSV-1 KOS-M1; conditions: Table 5, mutant selected for 4-oxo-DHQ resistance; read-out: Plaque Reduction Assay - IC50 (μM) HSV-1 KOS-M1
Procedure: as §1, §3, §2

HSV-1 F = test: Plaque reduction assay, HSV-1 F; conditions: Table 1, plaque reduction, Vero cells
Procedure: as §1, §2

HSV-2 186 = test: Plaque reduction assay, HSV-2 186; conditions: Table 1, plaque reduction, Vero cells
Procedure: as §1, §2

HSV-1 Patton = test: Plaque reduction assay, HSV-1 Patton; conditions: Table 1, plaque reduction, Vero cells
Procedure: as §1, §2

HSV-1 DJL = test: Plaque reduction assay, HSV-1 DJL; conditions: Table 1, plaque reduction, Vero cells
Procedure: as §1, §2

Compound: Cn1cc(C(=O)NCc2ccc(Cl)cc2)c(=O)c2cc(CN3CCOCC3)sc21 [Compound 3]
- IC50 (HCMV AD169): 1.5 µM
- IC50 (HSV-1 KOS; Table 1, plaque reduction, Vero cells, read-out: IC50 (uM), HSV-1 KOS): 3.2 µM
- IC50 (HSV-1 KOS; Table 5, wild type strain, read-out: Plaque Reduction Assay - IC50 (μM) HSV-1 KOS): 4 µM
- IC50 (HSV-2 MS-M1 (V826A)): > 50 µM
- IC50 (HSV-2 MS; Table 1, plaque reduction, Vero cells, read-out: IC50 (uM), HSV-2 MS): 2.8 µM
- IC50 (HSV-2 MS; Table 5, wild type strain, read-out: Plaque Reduction Assay - IC50 (μM) HSV-2 MS): 0.8 µM
- IC50 [1]: 6.2 µM
- IC50 (HSV-2 35D): 5 µM
- IC50 (HSV-1 KOS-M1 (V823A)): > 50 µM
- IC50 (HSV-1 F): 2.2 µM
- IC50 (HSV-2 186): 3.2 µM
- IC50 (HSV-1 Patton): 7.7 µM
- IC50 (HSV-1 DJL): 1.8 µM
